The test system of series [1] is AMPA receptors. Particulars: literature; cited from earlier work.
For series [2] the following is noted: literature; cited from earlier work.
The test system of series [3] is animals. The settings on record: literature; cited from earlier work.
The subject of series [4] is AMPA receptor. Description: Cortical wedge model, AMPA receptor (rat brain slices in vitro). Type of series: cell-based. The settings on record: receptor subtype AMPA; for EC50: agonists. On the procedure:
(§1) The Cortical wedge model is a test in which slices of rat brain is examined in vitro in order to quantify the effect of ligands at the various Glu-receptors and evaluate the pharmacological profile of the ligands (i.e. agonist/antagonist properties). The test was performed as described by Harrison, N. L. and Simmonds, M. A. Br.J.Pharmacol. 1985, 84, 381-391 as modified according to Wheatley, P. L. Br.J.Pharmacol. 1986, 87, 159P.

The subject of series [5] is NMDA receptor. Description: Cortical wedge model, NMDA receptor (rat brain slices in vitro). Type of series: cell-based. The settings on record: receptor subtype NMDA; for pKi: antagonist. On the procedure: as §1

Structures can show the parent of a compound that is named as a salt.

For `Cc1onc(C(=O)O)c1CC(N)C(=O)O` (racemic) [ACPA], in series [1], the “agonist effects at AMPA receptors” value is “potent AMPA receptor agonist”.
For the compound `Cc1onc(O)c1CC(N)C(=O)O` (racemic) [AMPA, (RS)-2-amino-3-(3-hydroxy-5-methylisoxazol-4-yl)propionic acid], in series [1], the “agonist effects at AMPA receptors” value was “selective agonist effects at AMPA receptors”.
With `NC(Cc1c(O)noc1-c1ccccc1)C(=O)O` (racemic) [APPA, (RS)-2-Amino-3-(3-hydroxy-5-phenylisoxazol-4-yl)propionic acid], the “agonist effects at AMPA receptors” value in series [1] was “weak but unique partial agonist profile”.
With `CC(C)(C)c1onc(O)c1CC(N)C(=O)O` (racemic) [ATPA], the systemic activity entry in series [2] is on record as “systemically active”. For the same compound, the neurotoxic effects entry in series [3] is reported as “has not been reported to show neurotoxic effects in animals”.
As for `COc1noc(C(=O)O)c1CC(N)C(=O)O.O` (racemic) [Compound 1, (RS)-2-Amino-3-(5-carboxy-3-methoxyisoxazol-4-yl)propionic Acid Hydrate], in series [4], the Profile entry is “Agonist” and the EC50 was 1.2 µM.
For `CCOc1noc(C(=O)O)c1CC(N)C(=O)O` (racemic) [Compound 2, (RS)-2-Amino-3-(5-carboxy-3-ethoxyisoxazol-4-yl)propionic Acid] the same measures were “Agonist” and 4.8 µM.
For `CC(C)Oc1noc(C(=O)O)c1CC(N)C(=O)O` (racemic) [Compound 3, (RS)-2-Amino-3-(5-carboxy-3-isopropoxyisoxazol-4-yl)propionic Acid] the same measures were “Agonist” and 40 µM.
With `CCOc1noc(-c2nnn[nH]2)c1CC(N)C(=O)O` (racemic) [Compound 8, (RS)-2-Amino-3-[3-ethoxy-5-(5-tetrazolyl)isoxazol-4-yl]propionic acid], in series [4], the Profile result is “Agonist” and a half-maximal response (EC50) required 2000 µM.
The like results for `CCCOc1noc(C(=O)O)c1CC(N)C(=O)O` (racemic) [Compound 10, (RS)-2-Amino-3-(3-propoxy-5-carboxyisoxazol-4-yl)propionic Acid] were, in that order, “Agonist” and 80 µM.
Turning to `CCCCOc1noc(C(=O)O)c1CC(N)C(=O)O` (racemic) [Compound 11, (RS)-2-Amino-3-(3-butoxy-5-carboxisoxazol-4-yl)propionic Acid], in series [4], the Profile result was “Part. Agonist” and the EC50 was found to be 325 µM.
As for `C=CCOc1noc(C(=O)O)c1CC(N)C(=O)O` (racemic) [Compound 12, (RS)-2-Amino-3-(3-allyloxy-5-carboxyisoxazol-4-yl)propionic Acid], in series [4], the Profile entry is recorded as “Agonist” and the response was half-maximal at 40 µM (EC50).
`NC(Cc1c(C(=O)O)on(Cc2ccccc2)c1=O)C(=O)O` (racemic) [Compound 13, (RS)-2-Amino-3-(2-benzyl-5-carboxy-2,3-dihydro-3oxisoxazol-4-yl)propionic Acid, Hydrochloride, Monohydrate]: in series [5], the Profile entry was “Antagonist” and the pKi is 3.5.
With `CCOc1noc(C(=O)O)c1C[C@@H](N)C(=O)O` [(R)-2, (R)-2-Amino-3-(5-carboxy-3-ethoxyisoxazol-4-yl)propionic Acid], in series [4], the Profile result was “Antagonist”. Further, the pKi in series [4] (antagonist) amounted to 3.28.
Regarding `CCOc1noc(C(=O)O)c1C[C@H](N)C(=O)O` [(S)-2, (S)-2-Amino-3-(5-carboxy-3-ethoxyisoxazol-4-yl)propionic Acid], in series [4], the Profile result is given as “Agonist” and the EC50 amounted to 4.4 µM.
Take `CCOc1noc(C(=O)O)c1CNc1c(N)c(=O)c1=O` [Compound 17, [4-(2-Amino-3,4-dioxocyclobut-1-en-1-yl)aminomethyl]-3-ethoxyisoxazole-5-carboxylic Acid]: in series [5], the Profile entry is given as “Antagonist” and the pKi is listed as 3.3.
